Laboratory results published in patent publication US20140066303A1, “COMPOSITIONS AND METHODS FOR IMPROVING THE COMPATIBILITY OF WATER SOLUBLE HERBICIDE SALTS” (DOW AGROSCIENCES LLC, priority 2012, published 2014).

Key:
Format in all cases: physicochemical
[1] = Critical Crystallization Concentration (CCC) of 2,4-D DMA in spray mixtures with glyphosate potassium salt; conditions: 2,4-D DMA + Roundup PowerMax 1:1 AE; no SAC, control sample; 342 ppm hardness water; 24 h ambient
From the text: (§1) Alternatively, the relative effectiveness of the surface active compatibilizers described herein at improving the compatibility of the aqueous herbicide solutions described herein can be determined by measuring the Critical Crystallization Concentration (CCC) of the aryloxyalkanoic acid salt, the pyridyloxyalkanoic acid salt, the arylcarboxylic acid salt, or the heteroarylcarboxylic acid salt of an inorganic cation such as, for example, the potassium salt of 2,4-D in a tank mix solution. The CCC of a particular composition can be measured by preparing saturated and over saturated solutions or mixtures of the composition and then measuring the concentration of the particular herbicidal carboxylic acid remaining in solution. […]
(§2) The CCC of 2,4-D compositions were measured using the following method. […] The CCC was determined by measuring the X-intercept of the extrapolated linear function of the crystal weight vs. 2,4-D wt % AE concentration. […] The amounts of 2,4-D and glyphosate salts were added to achieve desired AE concentrations of 2,4-D and glyphosate at 1:1 ratio, and the amount of water was calculated as a balance ingredient to achieve the final mixture volume of 100 ml. • 7. […]

[2] = Critical Crystallization Concentration (CCC) of 2,4-D DMEA in spray mixtures with glyphosate potassium salt; conditions: 2,4-D DMEA + Roundup PowerMax 1:1 AE; no SAC, control sample; 342 ppm water; 24 h ambient
From the text: as §1, §2

[3] = On-set pH of crystallization (OSPOC) of aqueous 2,4-D potassium solution, titration with sulfuric acid; conditions: 3% AE w/w 2,4-D K in water; control, no SAC (0.0%); pH lowered with 0.2 N sulfuric acid
From the text: Without intending to be bound by theory, the surface active compatibilizers described herein are believed to improve the compatibility of aqueous herbicide solutions comprised of at least one of a water soluble salt of an aryloxyalkanoic acid, a water soluble salt of a pyridyloxyalkanoic acid, a water soluble salt of an arylcarboxylic acid, a water soluble salt of a heteroarylcarboxylic acid and a water soluble salt of glyphosate, a suitable concentration of one or more inorganic cations, and a pH of less than about 6.5 by preventing or inhibiting the crystallization or precipitation of solids. The relative effectiveness of the surface active compatibilizers in preventing the formation of these solids can be estimated by measuring the on-set pH of crystallization (OSPOC) of the solids in a titration analysis procedure. The OSPOC of a particular composition can be measured, for example, by titrating a solution of an aryloxyalkanoic or a pyridyloxyalkanoic acid salt of an inorganic cation such as, for example, the potassium salt of 2,4-D with a strong acid such as, for example, sulphuric acid until solids or crystals begin forming at a particular pH value (the OSPOC). […]

Structure (SMILES): CNC.O=C(O)COc1ccc(Cl)cc1Cl [2,4-D DMA, 2,4-D dimethyl ammonium salt]
- 2,4-D CCC [1]: 0.89% AE

Structure (SMILES): CN(C)CCO.O=C(O)COc1ccc(Cl)cc1Cl [2,4-D DMEA, 2,4-D dimethylethanol ammonium salt]
- 2,4-D CCC [2]: 1.04% AE

Structure (SMILES): O=C([O-])COc1ccc(Cl)cc1Cl.[K+] [2,4-D K, 2,4-D potassium]
- On-Set pH of Crystallization (OSPOC) [3]: 6.16
